# Earlier results, collected in patent publication US6576256B2, “Treatment of patients at elevated cardiovascular risk with a combination of a cholesterol-lowering agent, an inhibitor of the renin-angiotensin system, and aspirin” (priority 2001, dated 2003).
# Assays:
# blood pressure = settings: relative to angiotensin II
# [1] = test system: patients at risk for cardiovascular events; settings: daily administration of low doses (approximately 80 mg)
molecule,measurement,setting,value
"angiotensin I (DRVYIHPFHL; Angiotensin-1; UniProt P01019 25-34, looked up) [decapeptide formed by renin acting on angiotensinogen]",hypertensive activity as share of that of angiotensin II,blood pressure,about 1%
"CC(=O)Oc1ccccc1C(=O)O [aspirin, acetylsalicylic acid]","reduction of second heart attacks, strokes, and cardiovascular deaths",[1],at least 25%
